Results published in patent US20060142247A1, “Tricyclic heterocycles” (priority 2004, published 2006).

Each compound was assayed against T1, Aurora A (Homo sapiens, UniProt O14965) (assay: IC50 determination for inhibitors of Aurora A (96 MTP-ELISA)). Settings: His4-tagged full-length Aurora A 250 ng/ml, PKB-GSK2 200 nM, ATP 4 μM, 90 min room temperature, read-out: IC50 Aurora A kinase inhibition.
T1 construct: C-terminally Histidine4 (His4)-tagged Aurora A full-length protein; His4 (C)
T1 sequence (O14965 1-403): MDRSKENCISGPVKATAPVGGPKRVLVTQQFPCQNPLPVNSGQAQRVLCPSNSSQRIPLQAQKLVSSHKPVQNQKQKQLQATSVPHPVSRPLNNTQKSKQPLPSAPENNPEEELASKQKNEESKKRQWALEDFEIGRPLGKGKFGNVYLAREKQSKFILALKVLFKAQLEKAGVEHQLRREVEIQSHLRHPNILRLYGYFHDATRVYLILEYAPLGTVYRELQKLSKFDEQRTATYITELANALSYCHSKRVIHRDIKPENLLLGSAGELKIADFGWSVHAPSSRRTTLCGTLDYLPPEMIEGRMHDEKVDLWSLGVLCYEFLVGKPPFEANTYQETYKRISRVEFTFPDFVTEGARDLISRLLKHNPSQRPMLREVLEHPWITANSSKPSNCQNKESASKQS
Format: biochemical
Description: Aurora A is a serine threonine kinase involved in spindle assembly and chromosome segregation. The assay is a typically ELISA-type assay where biotinylated substrate (PKB-GSK2) is phosphorylated. Phosphorylation is detected by peroxidase (POD) labelled polyclonal antibody (PAK<M-Ig>S-IgG-POD) and phosphopeptide monoclonal antibody (Mab) (MAK<P-GSK>M-27E5-IgG). The assay is validated for IC50-determination.
Assay plates: 96-well polystyrene plates, streptavidin-coated,
Samples: 10 mM in dimethylsulfoxide (DMSO)
Aurora A-His-4: C-terminally Histidine4 (His4)-tagged Aurora A full-length protein, stock solution 0.7 mg/ml, final conc.: 250 ng/ml
PKB-GSK2: biotinylated peptide derived from human GSK3-alpha sequence (Biotin-SGRARTSSFAEPGG-CONH2), stock solution 600 μM, final conc.: 200 nM
PAK<M-Ig>S-IgG-POD: Anti-mouse IgG, horse radish peroxidase(HRP)-linked Antibody, diluted in 3% BSA/PBS-T (1:10000), (Cell Signaling, Cat. No.: 7076)
MAK<P-GSK>M-27E5-IgG: Phospho-GSK-3-alpha (Ser 21) (27E5) Monoclonal Antibody, stock solution 1.85 mg/ml, diluted in 3% BSA/PBS-T (1:6000), final conc.: 0.31 μg/ml, (Cell Signaling, Cat. No.: 9337B)
ATP: Adenosine-5′-triphosphate 1 mM, diluted in kinase buffer, (Roche Diagnostics GmbH, Cat. No.: 127531-001,), final conc.: 4 μM
TRIS: 2-Amino-2-hydroxymethyl-1,3-propoanediol (“tris-(hydroxymethyl)-aminomethane”) (MERCK, Cat. No.: 108382.2500)
BSA: Bovine Serum Albumin Fraction V, fatty acid free (Roche Diagnostics GmbH, Cat. No. 9100221)
EDTA Titriplex III (di-Sodium-EDTA di-Hydrate), 120 mM, (MERCK, Cat. No.: 1.08418.1000)
ABTS buffer: ABTS (2,2′-azino-bis(3-ethylbenzthiazoline-6-sulfonic acid)) 16.7 mg/ml (Roche Diagnostics GmbH, Cat. No.: 1204530) • ABTS tablets: dissolve one ABTS tablet in 50 ml of working solution (ABTS buffer) (Roche Diagnostics GmbH, Cat. No.: 1112422 ) • Tween 20: Polysorbat 20 (Roche Diagnostics GmbH, Cat. No.: 10006394-001) • DTT: 1,4-Dithiothreitol (Roche Diagnostics GmbH, Cat. No.: 197777) • MgCl2×6H2O MERCK, Cat. No.: 105833.1000 • Kinase buffer: 50 mM TRIS, 10 mM MgCl2, 1 mM DTT, 0.1% Tween 20, pH 7.8 PBS-T (=Wash buffer) (PBS-T)10 g/l PBS(Phosphate buffered saline) with 0.033% Tween 20 • 3% BSA/PBS-T: 3% BSA dissolved in PBS-T Method
This assay is performed in 96-well format for IC50 determination with 5 samples (each with 8 concentrations by twofold testing), 100 μl incubation volume and the following plate layout:
S samples, with ATP, 1% DMSO, final conc.: a=100 μM, b=20 μM, c=4 μM, d=0.8 μM, e=0.16 μM, f=0.032 μM, g=0.0064 μM, h=0.00128 μM Step/Action • (1) Sample preparation: add 24 μl per well samples (descending sequence) diluted in kinase buffer to assay plate (final conc. for DMSO 1%). • 2. Add directly 16 μl Aurora-A-his-4 diluted in kinase buffer to assay plate. • 3. Add directly 40 μl per well PKB-GSK2/ATP mixture to assay plate, (final conc.: Aurora A=250 ng/ml, GSK2=200 nM, ATP=4 μM). Negative control: without ATP. • 4. Incubate assay plate for exactly 90 min at room temperature. • 5. Stop reaction by adding 20 μl EDTA in all wells. • 6. Wash assay plate 3× with 200 μl washing buffer per well. • 7. Add 100 μl MAK<P-GSK>M27E5-IgG (1:10000) and PAK<M-Ig>S-IgG-POD (1:6000) dissolved in 3% BSA/PBS-T to assay plate per well. • 8. Incubate assay plate for 60 min at room temperature. • 9. Wash assay plate 3× with 200 μl washing buffer per well • 10. Add 100 μl ABTS solution to assay plate per well, incubate for approx. 4 min at RT on MTP shaker. • 11. Measure absorption at 405/492 nm. • 12. Calculate % inhibition as: (1−(Esample−ENC)/(EPC−ENC))×100 1)
13. Calculate IC50 using a non-linear curve fit (XLfit software (ID Business Solution Ltd., Guilford, Surrey, UK))

| Structure (SMILES) | IC50 |
| --- | --- |
| C=CCN1C(=O)C(C)(C)c2cc3nc(-c4n[nH]c5ccccc45)[nH]c3cc21 [Example 2, 5-Allyl-2-(1H-indazol-3-yl)-7,7-dimethyl-5,7-dihydro-3H-imidazo[4,5-f]indol-6-one] | 1 to 100 nM |
| CC(C)N1C(=O)C(C)(C)c2cc3nc(-c4n[nH]c5ccccc45)[nH]c3cc21 [Example 6, 2-(1H-indazol-3-yl)-5-isopropyl-7,7-dimethyl-5,7-dihydro-3H-imidazo[4,5-f]indol-6-one] | 28 nM |
| CC1(C)C(=O)N(CCCN2CCOCC2)c2cc3[nH]c(-c4n[nH]c5ccccc45)nc3cc21 [Example 7, 2-(1H-indazol-3-yl)-7,7-dimethyl-5-(3-morpholin-4-yl-propyl)-5,7-dihydro-3H-imidazo[4,5-f]indol-6-one] | 14 nM |
| CC1(C)C(=O)Nc2cc3[nH]c(-c4n[nH]c5ccccc45)nc3cc21 [Example 8, 2-(1H-indazol-3-yl)-7,7-dimethyl-5,7-dihydro-3H-imidazo[4,5-f]indol-6-one] | 1 to 100 nM |
| O=C1Nc2cc3nc(-c4n[nH]c5ccccc45)[nH]c3cc2C12CCCC2 [Example 9, 2-(1H-indazol-3-yl)-spiro[7,7-cyclopentan-5,7-dihydro-3H-imidazo[4,5-f]indol]-6-one] | 100 to 250 nM |
| CC1C(=O)Nc2cc3[nH]c(-c4n[nH]c5ccccc45)nc3cc21 (centres unmarked) [Example 11, 2-(1H-Indazol-3-yl)-7-methyl-5,7-dihydro-3H-imidazo[4,5-f]indol-6-one] | 100 to 250 nM |
| CCC1C(=O)Nc2cc3nc(-c4[nH]nc5ccccc45)[nH]c3cc21 (centres unmarked) [Example 13, 7-Ethyl-2-(1H-indazol-3-yl)-5,7-dihydro-3H-imidazo[4,5-f]indol-6-one] | 100 to 250 nM |
| C=CCCN1C(=O)C(C)(C)c2cc3nc(-c4n[nH]c5ccccc45)[nH]c3cc21 [Example 15, 5-But-3-enyl-2-(1H-indazol-3-yl)-7,7-dimethyl-5,7-dihydro-3H-imidazo[4,5-f]indol-6-one] | 1 to 100 nM |
| COCCOCCN1C(=O)C(C)(C)c2cc3nc(-c4n[nH]c5ccccc45)[nH]c3cc21 [Example 17, 2-(1H-Indazol-3-yl)-5-[2-(2-methoxy-ethoxy)-ethyl]-7,7-dimethyl-5,7-dihydro-3H-imidazo[4,5-f]indol-6-one] | 1 to 100 nM |
| CC1(C)C(=O)N(CCCN2CCCCC2)c2cc3[nH]c(-c4n[nH]c5ccccc45)nc3cc21 [Example 19, 2-(1H-Indazol-3-yl)-7,7-dimethyl-5-(3-piperidin-1-yl-propyl)-5,7-dihydro-3H-imidazo[4,5-f]indol-6-one] | 1 to 100 nM |
| CN(C)CCCN1C(=O)C(C)(C)c2cc3nc(-c4n[nH]c5ccccc45)[nH]c3cc21 [Example 21, 5-(3-Dimethylamino-propyl)-2-(1H-indazol-3-yl)-7,7-dimethyl-5,7-dihydro-3H-imidazo[4,5-f]indol-6-one] | 1 to 100 nM |
| CCOC(=O)CN1C(=O)C(C)(C)c2cc3nc(-c4n[nH]c5ccccc45)[nH]c3cc21 [Example 23, [2-(1H-Indazol-3-yl)-7,7-dimethyl-6-oxo-6,7-dihydro-3H-imidazo[4,5-f]indol-5-yl]-acetic acid ethyl ester] | 1 to 100 nM |
| CC1(C)C(=O)N(CCO[Si](C)(C)C(C)(C)C)c2cc3[nH]c(-c4n[nH]c5ccccc45)nc3cc21 [Example 28, 5-[2-(tert-Butyl-dimethyl-silanyloxy)-ethyl]-2-(1H-indazol-3-yl)-7,7-dimethyl-5,7-dihydro-3H-imidazo[4,5-f]indol-6-one] | 1 to 100 nM |
| CC1(C)C(=O)N(CC(O)CO)c2cc3[nH]c(-c4n[nH]c5ccccc45)nc3cc21 (centres unmarked) [Example 35, 5-(2,3-Dihydroxy-propyl)-2-(1H-indazol-3-yl)-7,7-dimethyl-5,7-dihydro-3H-imidazo [4,5-f]indol-6-one] | 1 to 100 nM |
| CC1(C)C(=O)N(CC(N)=O)c2cc3[nH]c(-c4n[nH]c5ccccc45)nc3cc21 [Example 37, 2-[2-(1H-Indazol-3-yl)-7,7-dimethyl-6-oxo-6,7-dihydro-3H-imidazo[4,5-f]indol-5-yl]-acetamide] | 1 to 100 nM |

The remaining lines, values ahead:

| IC50 | Structure (SMILES) |
| --- | --- |
| 1 to 100 nM | CCN1C(=O)C(C)(C)c2cc3nc(-c4n[nH]c5ccccc45)[nH]c3cc21 [Example 3, 5-Ethyl-2-(1H-indazol-3-yl)-7,7-dimethyl-5,7-dihydro-3H-imidazo[4,5-f]indol-6-one] |
| 1 to 100 nM | CCCN1C(=O)C(C)(C)c2cc3nc(-c4n[nH]c5ccccc45)[nH]c3cc21 [Example 5, 2-(1H-indazol-3-yl)-7,7-dimethyl-5-propyl-5,7-dihydro-3H-imidazo[4,5-f]indol-6-one] |
| 1 to 100 nM | CC1(C)C(=O)N(CC#N)c2cc3[nH]c(-c4n[nH]c5ccccc45)nc3cc21 [Example 24, [2-(1H-Indazol-3-yl)-7,7-dimethyl-6-oxo-6,7-dihydro-3H-imidazo[4,5-f]indol-5-yl]-acetonitrile] |
| 100 to 250 nM | CC1(C)C(=O)N(Cc2ccccc2)c2cc3[nH]c(-c4n[nH]c5ccccc45)nc3cc21 [Example 26, 5-Benzyl-2-(1H-indazol-3-yl)-7,7-dimethyl-5,7-dihydro-3H-imidazo[4,5-f]indol-6-one] |
| 1 to 100 nM | CC1(C)C(=O)N(Cc2ccc(S(C)(=O)=O)cc2)c2cc3[nH]c(-c4n[nH]c5ccccc45)nc3cc21 [Example 27, 2-(1H-Indazol-3-yl)-5-(4-methanesulfonyl-benzyl)-7,7-dimethyl-5,7-dihydro-3H-imidazol[4,5-f]indol-6-one] |
| 1 to 100 nM | CC1(C)C(=O)N(CCO)c2cc3[nH]c(-c4n[nH]c5ccccc45)nc3cc21 [Example 34, 5-(2-Hydroxy-ethyl)-2-(1H-indazol-3-yl)-7,7-dimethyl-5,7-dihydro-3H-imidazo[4,5-f]indol-6-one] |
| 1 to 100 nM | CC1(C)C(=O)N(CC(=O)O)c2cc3[nH]c(-c4n[nH]c5ccccc45)nc3cc21 [Example 36, [2-(1H-Indazol-3-yl)-7,7-dimethyl-6-oxo-6,7-dihydro-3H-imidazo[4,5-f]indol-5-yl]-acetic acid] |
| 1 to 100 nM | CC1(C)C(=O)N(CC(=O)NCc2ccccc2)c2cc3[nH]c(-c4n[nH]c5ccccc45)nc3cc21 [Example 39, N-Benzyl-2-[2-(1H-indazol-3-yl)-7,7-dimethyl-6-oxo-6,7-dihydro-3H-imidazo[4,5-f]indol-5-yl]-acetamide] |
